Test results taken from patent US20230321101A1, “METHODS AND USES OF HALOFUGINONE” (The Regents of the University of California, priority 2020, published 2023).
Values joined by “and” are separate entries in the source; they are usually repeats but may differ in a detail not shown here. Identical values can stand only once. Like-named read-outs stand apart in the source and are kept apart here.

What was measured:
hepcidin expression [1] = assay: Hepcidin and SMAD7 expression in HepG2 human hepatocytes; type: cell-based; details: HepG2, 24 hr incubation
Experimental: FIG. 8A and FIG. 8B. HepG2—24 hr incubation.

hepcidin expression [2] = assay: Hepcidin expression in Hep3B human hepatocytes; type: cell-based
Experimental: FIG. 6. Hep3B—18 hr incubation.
FIG. 7. Hep3B—24 hr incubation.

clinical = details: human, in vivo, po
authentic SARS-CoV-2 [3] = type: cell-based
ZIKV (Zika virus) = assay: ZIKV antiviral immunofluorescence assay in SH-SY5Y cells; type: cell-based; details: Zika virus, read-out: EC50 ZIKV
Experimental: (§1) Experimental Procedure. The antiviral activity of 8 dilutions of each compound was explored by adding the drug to the assay cells 2 h after infection with the different viruses. Virus and compounds were left on the cells for the entire duration of the experiment (28 h for Zika virus and 24 h for all other viruses). The cytotoxicity of the same range of concentrations of compounds was determined by LDH release assay in the same cell lines.
(§2) Cell plating. Cells were detached and counted following SOP-RA 003 and SOP-RA 004. Count was recorded in the Cell Count Logbook, Volume 1. For each virus four plates were seeded, two for the antiviral assay and two for the cytotoxicity assay. Cells were seeded in 100 μl/well of complete media at the following densities: • Huh7: 8,000 cells/well (Dengue) • SH-SY5Y: 10,000 cells/wells (Zika) • HeLa Tzmbl: 8,000 cells/well (HIV)
(§3) Compounds dilutions. The 22.1 mM stocks were further diluted to 1 mM in DMSO by adding 211 μl of DMSO to 10 μl of compound. Three serial dilutions were prepared in different media for different viruses/cells. For each dilution, drugs were prepared at twice the final concentration in 50 μl volume, because they are diluted to the final concentration by an equal volume of virus or media.
(§4) Infection. Cells were infected in 50 μl of supplemented media/well at the following multiplicity of infection (MOI): • DENV-2, MOI 1 • ZIKV, MOI 5 • HIV, MOI 0.5
(§5) After removing culture media from cells, 50 μl of virus dilution were added to all wells except Column 11 (uninfected control), where the same volume of supplemented media was added. […]
(§6) Infectivity readout. […] The primary antibodies were detected with an Alexa-488 conjugate secondary antibody (Life Technologies, A11001), and nuclei were stained with Hoechst. Images were acquired on a CellInsight CX5 high content platform (Thermo Scientific) using a 4× objective, and percentage infection calculated using CellInsight CX5 software (infected cells/total cells×100).
(§7) Determination of % Inhibition—IF assay. Normalized percentages of inhibition were calculated using the following formula: […]

[4] = tested on: Hep3B cells transcriptome; assay: RNA-Seq of Hep3B cells treated with halofuginone; type: cell-based, human
Vero E6 cells = assay: Cell number of Vero E6 cells treated for 24 h; type: cell-based, African green monkey; details: Vero E6, 24 h
Experimental: FIG. 32A and FIG. 32B. […] A-B, Measurement of authentic SARS-CoV-2 infection and cell number in Vero E6 cells treated with (A) halofuginone (HF) or (B) the 2R,3S-(+) enantiomer for 24 h. Data shown as mean±S.D.

SARS-CoV-2 spike RNA = assay: microbe, parasite or virus in culture; type: cell-based; details: Vero E6
[5] = tested on: primary human bronchial epithelial cells; details: 10 nM and 100 nM
[6] = tested on: heparan sulfate of Hep3B cells; assay: HS content and disaccharide analysis by LC-MS in Hep3B cells; type: cell-based, human
[7] = tested on: SARS-CoV-2 spike protein pseudotyped VSV; type: cell-based
[8] = tested on: recombinant SARS-CoV-2 spike RBD protein binding to Hep3B cells
[9] = human, cited from earlier work
[10] = tested on: recombinant SARS-CoV-2 spike RBD protein binding to Calu-3 cells
authentic SARS-CoV-2 [11] = type: cell-based; remark: listed apart in the source
DENV-2 (Dengue) = assay: DENV-2 antiviral immunofluorescence assay in Huh7 cells; type: cell-based; details: Dengue virus, DENV2, Huh-7, read-out: EC50 DENV-2
Experimental: as §1, §2, §3, §4, §5, §6, §7

Compound: O=C(CC1NCCCC1O)Cn1cnc2cc(Br)c(Cl)cc2c1=O (racemic) [halofuginone]
- BMP induced expression of hepcidin (hepcidin expression [1]): inhibits BMP induced expression of hepcidin
- SMAD7 levels (hepcidin expression [1]): increases SMAD7 levels
- inflammation (IL6) induced expression of hepcidin (hepcidin expression [1]): inhibits inflammation (1L6) induced expression of hepcidin
- basal hepcidin expression (hepcidin expression [2]; 18 hr incubation): inhibits basal hepcidin expression
- BMP6 induced expression of hepcidin (hepcidin expression [2]; 24 hr incubation): inhibits BMP6 induced expression of hepcidin
- Cmax (clinical; 0.5 mg): ~1.3 nM
- Cmax (clinical; 3.5 mg): ~7.4 nM
- number of SARS-CoV-2 infected cells (authentic SARS-CoV-2 [3]; at both 10 nM and 100 nM): significantly reduced the number of SARS-CoV-2 infected cells
- inhibition of SARS-CoV-2 (authentic SARS-CoV-2 [3]; different halofuginone doses): complete inhibition of SARS-CoV-2
- EC50 (ZIKV (Zika virus)): 21.8 nM
- ATF4-mediated integrated stress response (ISR) ([4]; Hep3B RNA-Seq): induced a general ATF4-mediated ISR
- expression of host factors exploited by SARS-CoV-2, TMPRSS2 and ACE2 ([4]; Hep3B RNA-Seq): No significant difference in expression
- mRNA of HSPGs GPC2 (GPC1) and SDC1 with HS biosynthetic enzymes B3GAT3 and EXTL3 ([4]; Hep3B RNA-Seq): significantly downregulated
- unfolded protein-induced ER stress response ([4]; Hep3B RNA-Seq): did not activate the unfolded protein-induced ER stress response
- differentially expressed genes ([4]; Hep3B, 200 or 500 nM, 6 h and 18 h): ~2700 genes
- cell proliferation (cell number) (Vero E6 cells): inhibit SARS-CoV-2 infection and cell proliferation
- IC50 (SARS-CoV-2 spike RNA; Severe acute respiratory syndrome coronavirus 2, Vero C1008, read-out: IC50 of SARS-CoV-2 spike intracellular mRNA levels): 34.9 nM
- reduction of SARS-CoV-2 spike intracellular mRNA levels (SARS-CoV-2 spike RNA): more than 20,000 fold
- cell viability [5]: without affecting cell viability
- disaccharide composition of HS [6]: No difference was seen in the disaccharide composition
- reduction of cell surface HS ([6]; 0.5 μM): ~4 fold
- inhibition of pseudotyped VSV infection [7]: about 30 fold
- decrease of SARS-CoV-2 RBD binding compared to excipient control (DMSO) ([8]; 1 μM, 18 h): 84%
- inhibition of spike RBD protein binding with excess proline ([8]; 4 mM proline in the media): prevented the ability of halofuginone to inhibit spike RED protein binding
- effect on spike (RBD) protein binding ([8]; listed as Halofuginone): reduced spike RBD protein binding
- accumulation, exposure by day 15 of dosing ([9]; phase I): two- to three-fold higher exposure
- half-life ([9]; phase I): ~3 h
- oral bioavailability ([9]; phase I): orally bioavailable
- average Cmax ([9]; single oral administration of 0.5 mg): 0.54 ng/mL
- average Cmax ([9]; single oral administration of 3.5 mg): 3.09 ng/mL
- effect on spike (RBD) protein binding [10]: dose-dependently inhibited spike protein binding
- reduction in spike RBD binding [10]: 5 fold
- effect on spike (RBD) protein binding ([10]; listed as Halofuginone): reduced spike RBD protein binding
- decrease of viral RNA levels (authentic SARS-CoV-2 [11]): 10- to 100 fold
- intracellular viral RNA (authentic SARS-CoV-2 [11]): did not change
- reduction of SARS-CoV-2 infectivity (authentic SARS-CoV-2 [11]): 3 Log and 4 Log
- reduction of secreted infectious virions (authentic SARS-CoV-2 [11]): ~1000 fold
- virus in plaque assays (authentic SARS-CoV-2 [11]; HuH 7.5, doses above 100 nM): No virus was detected in plaque assays
- productive infection (authentic SARS-CoV-2 [11]; Huh 7.5, 100 nM): prevented productive infection
- reduction of SARS-CoV-2 infection (viral titers) (authentic SARS-CoV-2 [11]; Huh 7.5, 100 nM, pretreatment alone): ~30 fold
- EC50 (DENV-2 (Dengue)): 35.4 nM
